{
  "source": "patent US20240391978A1",
  "about": "“APOLIPOPROTEIN FUSION PROTEINS FOR CELL-SPECIFIC IMMUNE REGULATION” (BIO-TRIP B.V., priority 2021, published 2024)",
  "assay_type_in_all_cases": "cell-based",
  "key": {"primary human monocytes [1]": {"system": "primary human monocytes", "assay": "In vitro inflammation inhibition, LPS-stimulated monocytes", "description": "(§1) For pharmacological inhibition experiments, the monocytes were pre-incubated for 1 hour with one of the inhibitors described in Table 2 before addition of the training stimulus.\nIn vitro inflammation inhibition: Monocytes were adhered to a flat-bottom cell culture plate for 1 hour and washed with warm PBS to remove any non-adherent cells and cell debris. […] Following the initial 24-hour stimulation, the supernatants were collected and stored at −20° C. until further analysis with ELISA for IL6 and TNF.\n(§2) Cytokine and lactate measurements: TNF, IL6, and IL1Ra were measured in cell culture supernatants using duoset ELISA kits (R&D systems), according to the manufacturer's instructions. For lactate measurements, a fluorometric assay was used. 30 μl sample, medium control, or known standard was added to a black 96-well plate. Then, 30 μl reaction mix (PBS pH 7.4, horse radish peroxidase (0.2 U/ml), lactate oxidase (2 U/ml), Amplex red (100 μM; Fisher scientific)) was added and the reaction was incubated for 20 minutes in the dark at RT. Immediately thereafter, fluorescence was measured at 530/25 nm and 590/35 nm. Gen5 software (v3.03, BioTek) was used in conjunction with Microsoft Excel to calculate cytokine and lactate concentrations in the original samples."}, "primary human monocytes [2]": {"system": "primary human monocytes", "assay": "In vitro model of trained immunity in primary human monocytes", "text": "In vitro model of trained immunity in primary human monocytes: To induce trained immunity in primary human monocytes, a previously optimized and published method was used (Dominguez-Andres, J. et al. In vitro induction of trained immunity in adherent human monocytes. STAR Protoc 2, 100365, doi:10.1016/j.xpro.2021.100365 (2021); van Lier, D., Geven, C., Leijte, G. P. & Pickkers, P. Experimental human endotoxemia as a model of systemic inflammation. Biochimie 159, 99-106, doi:10.1016/j.biochi.2018.06.014 (2019)). Briefly: monocytes were adhered to a flat-bottom cell culture plate for 1 hour and washed with warm PBS to remove any non-adherent cells and cell debris. Then, they were stimulated (“trained”) for 24 hours with one of the stimuli detailed in Table 1, or medium only (“untrained” control).\nas §1\nFollowing the initial 24-hour stimulation, the cells were washed with warm PBS and warm cell culture medium was added. The monocytes were then allowed to rest and differentiate into macrophages for 5 days. On day 6, the induction of trained immunity was assessed. To this end, the cells were typically re-stimulated with LPS for an additional 24 hours to elicit cytokine production. The supernatants were collected and stored at −20° C. until further analysis, e.g. with ELISA for IL6 and TNF.\nas §2"}, "[3]": {"system": "tolerant monocytes from the LPS-challenged volunteers", "assay": "Experimental human endotoxemia model, ex vivo tolerance reversal", "conditions": "ex vivo exposure 24 hours, re-stimulation on day 3", "text": "In vivo experimental human endotoxemia model and ex vivo analyses: Eight healthy (as confirmed by medical history, physical examination, and routine laboratory testing) male volunteers provided written informed consent to participate in experimental endotoxemia experiments conducted at the research unit of the intensive care department of the Radboud university medical center. All study procedures were approved by the local ethics committee (CMO Arnhem-Nijmegen, registration numbers NL71293.091.19 and 2019-5730), and were conducted in accordance with the latest version of the declaration of Helsinki.\nA continuous endotoxin infusion regimen was employed, as is described in detail elsewhere (van Lier, D., Geven, C., Leijte, G. P. & Pickkers, P. Experimental human endotoxemia as a model of systemic inflammation. Biochimie 159, 99-106, doi:10.1016/j.biochi.2018.06.014 (2019)). […] A 3-lead ECG was recorded continuously throughout the experiment. […] Participants were monitored for 8 hours after the endotoxin loading dose after which they were discharged from the research unit. […]\nCytokine and lactate measurements: TNF, IL6, and IL1Ra were measured in cell culture supernatants using duoset ELISA kits (R&D systems), according to the manufacturer's instructions. […] Immediately thereafter, fluorescence was measured at 530/25 nm and 590/35 nm. […]"}, "[4]": {"conditions": "Percoll-enriched monocytes, LPS 24 hours, IL4 25 ng/mL"}},
  "data": [
    {"substance": "IL4: recombinant human interleukin 4", "values": [
      {"measurement": "secretion of IL6", "setting": "primary human monocytes [1]; [4]", "result": "potently inhibited"},
      {"measurement": "secretion of IL-1Ra", "setting": "primary human monocytes [1]; [4]", "result": "secreted significantly more IL-1Ra compared to controls"},
      {"measurement": "secretion of TNF", "setting": "primary human monocytes [1]; [4]", "result": "potently inhibited"},
      {"measurement": "baseline lactate production", "setting": "primary human monocytes [1]; otherwise unstimulated monocytes vs medium control, data not shown", "result": "slightly, but significantly, lower baseline lactate production"},
      {"measurement": "induction of trained immunity (TNF and IL6 after LPS re-stimulation on day 6)", "setting": "primary human monocytes [2]; 24 hours training, 5-day rest, LPS 24 hours", "result": "induced a trained immunity phenotype on day 6"},
      {"measurement": "lactate at baseline of trained cells", "setting": "primary human monocytes [2]; IL4-trained cells, day 6, data not shown", "result": "produced more lactate at baseline"},
      {"measurement": "effect on β-glucan-induced trained immunity", "setting": "primary human monocytes [2]; IL4 added in the first 24 hours with β-glucan", "result": "did not inhibit the training effect"},
      {"measurement": "production of IL6 upon re-stimulation with LPS", "setting": "[3]", "result": "but not IL6"},
      {"measurement": "production of TNF upon re-stimulation with LPS", "setting": "[3]", "result": "significantly improved"}
    ]}
  ]
}
